# Reference: US20230000996A1, “RAPAFUCIN DERIVATIVE COMPOUNDS AND METHODS OF USE THEREOF” (The Johns Hopkins University, priority 2019, published 2023)
# Numbered stars: 1 amine (or outer) side, 2 acyl side, 3 side chain; on linkers, the order of the positions; unused ones are H or OH. Square brackets hold non-standard residues; d marks the D form. Side chains are listed from the residue outwards. Peptide text beside a SMILES is read from it. * marks the point of attachment. X1 = COc1ccc(CC[C@@H](N[*:1])c2cccc(OCC(=O)[*:2])c2)cc1OC; X2 = CN(CCC=CC(=O)OCC(C)(C)C(=O)C(=O)[*:2])[*:1]; NMeY = CN[C@@H](Cc1ccc(O)cc1)C(=O)O; Pip = O=C(O)[C@@H]1CCCCN1; Morpholide = C1CN(*)CCO1; CO = O=C([*:1])[*:2]; Sar = CNCC(=O)O
# Columns and labels:
# [1] = system: Rat Renal Ischemia-Reperfusion model; assay: Rat Renal Ischemia-Reperfusion model; type: in vivo, Sprague Dawley Rats; details: treated 30 min prior to right nephrectomy and left renal clamping; 24 hours of reperfusion; 1593 at 12 or 4 mg/kg, 1594 at 4 mg/kg
# Protocol: Briefly, Sprague Dawley Rats were treated test compound 30 min prior to a right nephrectomy and with underwent clamping of the left renal clamping for 15 mins. After 24 hours of reperfusion, blood was collected to measure biomarkers for kidney damage and the kidney was removed for histology. […] SHAM indicates an animal group with right nephrectomy without ischemic injury. VE indicates vehicle. DPA indicates dipyridamole administered in a dosage of 10 mg/kg. Compound 1593 was administered at a high dosage (12 mg/kg) or a low dosage (4 mg/kg). Compound 1594 was administered at 4 mg/kg.
# [2] = Nucleoside uptake, single concentration assay (Rel.Uptake); cell line indicated in each table; type: cell-based; details: nucleoside uptake, single concentration assay, 293T cells, response relative to DMSO
# Protocol: (§1) Nucleoside Uptake Assay (uptake). Nuceloside uptake assays were performed with using 3H-Thymidine as described in Guo et al. (2018) Nat. Chem. 11:254-63. Specific cell lines are indicated in each assay and cultured in complete growth media. Activity is scored according to the IC50 values relative to DMSO control. “Low” indicates an IC50 greater than 600 nM, “Medium” indicates an IC50 between 300 nM and 600 nM “High” indicates an IC50 less than 300 nM. “Rel.Uptake” refers to uptake activity characterization relative to a single concentration assay. “Low” indicates a response greater than 0.6 times the activity relative to DMSO, “Medium” indicates a response between 0.6 and 0.3 times the activity relative to DMSO, “High” indicates a response less than 0.3 times the activity relative to DMSO.
# [3] = system: NCI-H929; assay: Cell proliferation, single concentration assay (Rel. Prolif.), response relative to DMSO; type: cell-based; details: NCI-H929 cells, activity relative to DMSO
# [4] = system: 293T; assay: Nucleoside uptake assay (3H-Thymidine), IC50 scored relative to DMSO control; type: cell-based; details: 293T cells
# Protocol: as §1
# [5] = system: A549; assay: Cell proliferation assay (Prolif.), IC50 scored relative to DMSO control; type: cell-based; details: A549 cells; for Rel. Prolif., A549: proliferation response relative to DMSO control, scored low/medium/high; for Prolif, A549: IC50 class relative to DMSO control
# Protocol: Cell Proliferation Assay (Prolif.) Guo et al. (2018) Nat. Chem. 11:254-63. Specific cell lines are indicated in each assay and cultured in complete growth media. Activity is scored according to the IC50 values relative to DMSO control. “Low” indicates an IC50 greater than 600 nM, “Medium” indicates an IC50 between 300 nM and 600 nM “High” indicates an IC50 less than 300 nM. “Rel.Uptake” refers to uptake activity characterization relative to a single concentration assay. “Low” indicates a response greater than 0.6 times the activity relative to DMSO, “Medium” indicates a response between 0.6 and 0.3 times the activity relative to DMSO, “High” indicates a response less than 0.3 times the activity relative to DMSO.
# [6] = system: H929; assay: Cell proliferation assay (Prolif.), H929; type: cell-based; details: H929 cells; scored relative to DMSO control
structure (smiles),measurement,setting,value
COc1ccc(CC[C@H]2OC(=O)[C@@H]3CCCCN3C(=O)C(=O)C(C)(C)COC(=O)/C=C/CCN(C)C(=O)[C@H](CC(C)C)N(C)C(=O)[C@H]3CCCN3C(=O)[C@H](Cc3ccccc3)NC(=O)[C@H](c3ccccc3)NC(=O)CCC(=O)Nc3cccc2c3)cc1OC [Compound 1594],efficacy in Rat Renal Ischemia-Reperfusion model,[1],efficacious
same,"Rel. Uptake, 293T",[2],Low (“Low” indicates a response greater than 0.6 times the activity relative to DMSO)
COc1ccc(CC[C@H]2OC(=O)[C@@H]3CCCCN3C(=O)C(=O)C(C)(C)COC(=O)/C=C/CCN(C)C(=O)[C@H](CC(C)C)N(C)C(=O)[C@H]3CCCN3C(=O)[C@H](Cc3ccc(OCC(=O)O)cc3)NC(=O)[C@H](c3ccccc3)NC(=O)CCC(=O)Nc3cccc2c3)cc1OC [Compound 1593],efficacy in Rat Renal Ischemia-Reperfusion model,[1],efficacious
same,"Rel. Uptake, 293T",[2],High (“High” indicates a response less than 0.3 times the activity relative to DMSO)
COc1ccc(CC[C@H]2OC(=O)[C@@H]3CCCCN3C(=O)C(=O)C(C)(C)COC(=O)C=CCCN(C)C(=O)[C@@H](Cc3ccccc3)NC(=O)CN(C)C(=O)[C@@H](Cc3ccccc3)NC(=O)[C@H](Cc3ccc(OC(=O)N4CCOCC4)cc3)N(C)C(=O)COc3cc(F)cc2c3)cc1OC [Compound 868],"Rel. Prolif., NCI-H929",[3],low
COc1ccc(CC[C@H]2OC(=O)[C@@H]3CCCCN3C(=O)C(=O)C(C)(C)COC(=O)C=CCCN(C)C(=O)[C@@H](Cc3ccccc3)NC(=O)CN(C)C(=O)[C@@H](Cc3ccccc3)NC(=O)[C@H](Cc3ccc(OC(=O)N4CCOCC4)cc3)N(C)C(=O)COc3cccc2c3F)cc1OC [Compound 867],"Rel. Prolif., NCI-H929",[3],low
COc1ccc(CC[C@H]2NC(=O)[C@@H]3CCCCN3C(=O)C(=O)C(C)(C)COC(=O)C=CCCN(C)C(=O)[C@H](CC(C)C)N(C)C(=O)[C@H]3CCCN3C(=O)[C@H](Cc3ccccc3)N(C)C(=O)C(c3ccccc3)NC(=O)CCC(=O)Nc3cccc2c3)cc1OC (stereo partly shown) [Compound 1557],"Rel. Uptake, 293T",[2],high
same,"Uptake, 293T","[4]; 3H-Thymidine uptake, IC50 class relative to DMSO control",high
COc1ccc(CC[C@H]2OC(=O)[C@@H]3CCCCN3C(=O)C(=O)C(C)(C)COC(=O)C=CCCN(C)C(=O)[C@H](CC(C)C)N(C)C(=O)[C@H]3CCCN3C(=O)[C@H](Cc3ccc(C(=O)Nc4ccccc4)cc3)NC(=O)[C@H](c3ccccc3)NC(=O)CCC(=O)Nc3cccc2c3)cc1OC [Compound 1559],"Rel. Uptake, 293T",[2],medium
same,"Uptake, 293T",[4]; nucleoside uptake,medium
COc1ccc(CC[C@H]2OC(=O)[C@@H]3CCCCN3C(=O)C(=O)C(C)(C)COC(=O)C=CCCN(C)C(=O)[C@@H](Cc3ccccc3)NC(=O)CN(C)C(=O)[C@@H](Cc3ccccc3)NC(=O)[C@H](Cc3ccc(OC(=O)N4CCOCC4)cc3)N(C)C(=O)CCC(=O)Nc3cccc2c3)cc1OC [Compound 869],"Rel. Prolif., NCI-H929",[3],low
CCCC[C@H]1C(=O)N[C@@H](Cc2ccc3ccccc3c2)C(=O)N(C)[C@@H](COC(C)(C)C)C(=O)NCC(=O)N(C)CCC=CC(=O)OCC(C)(C)C(=O)C(=O)N2CCCC[C@H]2C(=O)O[C@H](CCc2ccc(OC)c(OC)c2)c2cc(F)cc(c2)OCC(=O)N1C [Compound 574],"Rel. Prolif., A549",[5],low
CCCC[C@H]1C(=O)N[C@@H](Cc2ccc3ccccc3c2)C(=O)N(C)[C@@H](COC(C)(C)C)C(=O)NCC(=O)N(C)CCC=CC(=O)OCC(C)(C)C(=O)C(=O)N2CCN(C)C[C@H]2C(=O)O[C@H](CCc2ccc(OC)c(OC)c2)c2cccc(c2)OCC(=O)N1C [Compound 572],"Prolif, A549",[5],me- dium
same,"Rel. Prolif., A549",[5],medium
CCCC[C@H]1C(=O)N[C@@H](Cc2ccc3ccccc3c2)C(=O)N(C)[C@@H](COC(C)(C)C)C(=O)NCC(=O)N(C)CCC=CC(=O)OCC(C)(C)C(=O)C(=O)N2CCCC[C@H]2C(=O)O[C@H](CCc2cc(O)c(OC)c(OC)c2)c2cccc(c2)OCC(=O)N1C [Compound 566],"Prolif, A549",[5],me- dium
same,"Rel. Prolif., A549",[5],medium
COc1ccc(CC[C@H]2NC(=O)[C@@H]3CCCCN3C(=O)C(=O)C(C)(C)COC(=O)C=CCCN(C)C(=O)[C@@H](Cc3ccccc3)NC(=O)CN(C)C(=O)[C@@H](Cc3ccccc3)NC(=O)[C@H](Cc3ccc(OC(=O)N4CCOCC4)cc3)N(C)C(=O)COc3cccc2c3)cc1OC [Compound 877] (cyclo([NMeY]([CO-Morpholide])[dF][Sar][dF][X2][Pip][X1])),Prolif. H929,[6],low
CCCC[C@H]1C(=O)N[C@@H](Cc2ccc3ccccc3c2)C(=O)N(C)[C@@H](COC(C)(C)C)C(=O)NCC(=O)N(C)CCC=CC(=O)OCC(C)(C)C(=O)C(=O)N2CCCC[C@H]2C(=O)O[C@H](CCc2cc(OC)c(OC)c(OC)c2)c2cccc(c2)OCC(=O)N1C [Compound 560],"Prolif, A549",[5],me- dium
same,"Rel. Prolif., A549",[5],medium
